PMC4628894 (Bioorganic & medicinal chemistry letters, 2015)
Like-named read-outs stand apart in the source and are kept apart here.

Experiments:
[1] = target: rat brain CRF1 receptor; conditions: read-out: IC50, rat brain CRF1 receptor; previous report; cited from earlier work
[2] = target: T1, human CRF1 receptor (Homo sapiens, UniProt P34998); assay type: binding; conditions: for fold loss of binding affinity at CRF1 relative to 2: compared to compound 2; for fold gain in binding affinity at CRF1 relative to 17: compared to compound 17; for fold increase in binding affinity at CRF1 relative to 21: compared to compound 21
T1 sequence (P34998 24-415): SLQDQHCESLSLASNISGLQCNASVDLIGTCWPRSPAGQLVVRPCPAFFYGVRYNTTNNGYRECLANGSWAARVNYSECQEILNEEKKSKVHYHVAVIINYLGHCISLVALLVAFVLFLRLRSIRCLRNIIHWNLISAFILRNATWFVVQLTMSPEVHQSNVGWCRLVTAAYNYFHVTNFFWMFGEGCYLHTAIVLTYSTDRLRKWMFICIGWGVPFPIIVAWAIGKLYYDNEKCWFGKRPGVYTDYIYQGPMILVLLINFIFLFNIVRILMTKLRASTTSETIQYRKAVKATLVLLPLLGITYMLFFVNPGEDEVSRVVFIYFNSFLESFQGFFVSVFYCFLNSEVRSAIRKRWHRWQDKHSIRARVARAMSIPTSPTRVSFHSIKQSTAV

[3] = target: CRF1 receptor; conditions: read-out: Ki for the CRF1 receptor, previously reported, cited from earlier work

Structure (SMILES)	IC50 [1] [nM]	fold increase in binding affinity at CRF1 relative to 21 [2]	also measured
CCCCN(CC)c1cc(C)nc2c1NC(=O)CN2c1ccc(C(C)C)cc1Br [Compound 2]	0.7		
CCCCN(CC)c1cc(C)nc2c1NC(=O)CN2c1ccc(Cl)cc1Cl [Compound 6]	0.49		
CCCCN(CC)c1cc(C)nc2c1NC(=O)CN2c1ccc(OC)cc1C [Compound 9]	0.92		
Cc1cc(N(C)C)c2c(n1)N(c1ccc(C(C)C)cc1Br)CC(=O)N2 [Compound 17]			fold loss of binding affinity at CRF1 relative to 2 [2]: ~ 75 fold
CCN(C)c1cc(C)nc2c1NC(=O)CN2c1ccc(C(C)C)cc1Br [Compound 18]			fold loss of binding affinity at CRF1 relative to 2 [2]: ~ 6.8 fold; fold gain in binding affinity at CRF1 relative to 17 [2]: ~ 11 fold
Cc1cc(N(C)C)c2c(n1)N(c1ccc(C(C)C)cc1Br)CC(=O)N2CCF [Compound 21]			fold gain in binding affinity at CRF1 relative to 17 [2]: ~ 3 fold
CCN(CC)c1cc(C)nc2c1N(CCF)C(=O)CN2c1ccc(C(C)C)cc1Br [Compound 22]		~ 8 fold	
Cc1cc(N(C)C)c2c(n1)N(c1ccc(C(C)C)cc1Br)CC(=O)N2C/C=C/CF [Compound 23]		~ 4 fold	
Cc1cc(N(C)C)c2c(n1)N(c1ccc(C(C)C)cc1Br)CC(=O)N2CCCCF [Compound 24]		~ 2.7 fold	
CCCN(CCC)c1cc(C)nc2c(-c3cnc(N(C)C)cc3C)c(C)nn12 [Compound R121919]			Ki ([3]; ref 26): 3.5 nM; Ki ([3]; ref 27): 3 ± 0.16 nM
